Source: the supplement of paper PMC11451515

System: NOMO1
Test: cell viability relative to DMSO control; higher = less cytotoxic
Conditions: 48 h
Outline: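 Viability, reported as a per-plate percentage of DMSO wells with cell-free wells as background, came from CellTiter-Glo One luminescence. Reading took place after 48 h at 37°C. Before that, NOMO1 or SEM (500 cells/well) or P12-Ichikawa (1000 cells/well) leukemia cells, adapted for at least four passages in each medium, were seeded in 1536-well plates (5 μl) and pin-dosed with library compounds in DMSO, 47 μM to 0.79 nM over 11 threefold points.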

[1] = HPLM + 10% dialyzed FBS, 0.000781 µM
[2] = HPLM + 10% dialyzed FBS, 0.00234 µM
[3] = HPLM + 10% dialyzed FBS, 0.00702 µM
[4] = HPLM + 10% dialyzed FBS, 0.0211 µM
[5] = HPLM + 10% dialyzed FBS, 0.0632 µM
[6] = HPLM + 10% dialyzed FBS, 0.19 µM
[7] = HPLM + 10% dialyzed FBS, 0.569 µM
[8] = HPLM + 10% dialyzed FBS, 1.71 µM
[9] = HPLM + 10% dialyzed FBS, 5.12 µM
[10] = HPLM + 10% dialyzed FBS, 15.4 µM
[11] = HPLM + 10% dialyzed FBS, 46.1 µM
[12] = RPMI 5 mM glucose + 10% FBS, 0.000781 µM
[13] = RPMI 5 mM glucose + 10% FBS, 0.00234 µM
[14] = RPMI 5 mM glucose + 10% FBS, 0.00702 µM
[15] = RPMI 5 mM glucose + 10% FBS, 0.0211 µM
[16] = RPMI 5 mM glucose + 10% FBS, 0.0632 µM
[17] = RPMI 5 mM glucose + 10% FBS, 0.19 µM
[18] = RPMI 5 mM glucose + 10% FBS, 0.569 µM
[19] = RPMI 5 mM glucose + 10% FBS, 1.71 µM
[20] = RPMI 5 mM glucose + 10% FBS, 5.12 µM
[21] = RPMI 5 mM glucose + 10% FBS, 15.4 µM
[22] = RPMI 5 mM glucose + 10% FBS, 46.1 µM
[23] = RPMI 5 mM glucose + 10% dialyzed FBS, 0.000781 µM
[24] = RPMI 5 mM glucose + 10% dialyzed FBS, 0.00234 µM
[25] = RPMI 5 mM glucose + 10% dialyzed FBS, 0.00702 µM
[26] = RPMI 5 mM glucose + 10% dialyzed FBS, 0.0211 µM
[27] = RPMI 5 mM glucose + 10% dialyzed FBS, 0.0632 µM
[28] = RPMI 5 mM glucose + 10% dialyzed FBS, 0.19 µM
[29] = RPMI 5 mM glucose + 10% dialyzed FBS, 0.569 µM
[30] = RPMI 5 mM glucose + 10% dialyzed FBS, 1.71 µM
[31] = RPMI 5 mM glucose + 10% dialyzed FBS, 5.12 µM
[32] = RPMI 5 mM glucose + 10% dialyzed FBS, 15.4 µM
[33] = RPMI 5 mM glucose + 10% dialyzed FBS, 46.1 µM

Compound | cell viability [1] | cell viability [2] | cell viability [3] | cell viability [4] | cell viability [5] | cell viability [6] | cell viability [7] | cell viability [8] | cell viability [9] | cell viability [10] | cell viability [11] | cell viability [12] | cell viability [13] | cell viability [14] | cell viability [15] | cell viability [16] | cell viability [17] | cell viability [18] | cell viability [19] | cell viability [20] | cell viability [21] | cell viability [22] | cell viability [23] | cell viability [24] | cell viability [25] | cell viability [26] | cell viability [27] | cell viability [28] | cell viability [29] | cell viability [30] | cell viability [31] | cell viability [32] | cell viability [33]
O=C(c1ccc(F)cc1)C1CCN(CCn2c(=O)[nH]c3ccccc3c2=O)CC1 | 122% | 117% | 111% | 128% | 136% | 114% | 127% | 120% | 143% | 111% | 104% | 107% | 118% | 117% | 118% | 105% | 111% | 127% | 106% | 105% | 111% | 98.8% | – | – | – | – | – | – | – | – | – | – | –
CC1OC(OC/2=C(/OC3=C(C(=CC(=C3)O)O)C2=O)C4=CC=C(O)C=C4)C(O)C(OC(C)=O)C1OC(C)=O (stereo unspecified) | 119% | 109% | 137% | 130% | 111% | 110% | 112% | 112% | 120% | 101% | 78.9% | 120% | 116% | 110% | 100% | 117% | 111% | 96.8% | 96.9% | 103% | 94.3% | 68.9% | 96.7% | 108% | 109% | 111% | 112% | 114% | 118% | 104% | 111% | 99.2% | 77.2%
NC/1=N/C(=O)N(/C=C1)[C@H]2CC[C@@H](CO)O2 | 76% | 106% | 107% | 103% | 97.5% | 101% | 107% | 92.1% | 82.8% | 82.2% | 14.2% | 75.6% | 91.3% | 85.7% | 96.4% | 87.1% | 92.3% | 85.7% | 89.2% | 91% | 93.1% | 8.01% | 70.8% | 94.6% | 92.2% | 98.5% | 101% | 105% | 108% | 95.9% | 74% | 88.7% | 6.05%
CCOc1ccccc1OCCNC(C)Cc1ccc(OC)c([S+](N)(=O)[O-])c1 (stereo unspecified) | 103% | 105% | 96.8% | 121% | 129% | 119% | 120% | 114% | 109% | 115% | 102% | 98.8% | 110% | 115% | 117% | 105% | 112% | 102% | 101% | 109% | 102% | 101% | 90.1% | 108% | 110% | 112% | 111% | 108% | 109% | 101% | 117% | 104% | 105%
N=C(N)c1ccc(OCCCCCOc2ccc(C(=N)N)cc2)cc1 | 111% | 105% | 113% | 121% | 130% | 133% | 104% | 104% | 110% | 75.8% | 46.6% | 100% | 114% | 113% | 108% | 113% | 92.2% | 116% | 107% | 93.6% | 84.8% | 47.7% | 91.6% | 101% | 121% | 115% | 114% | 107% | 108% | 98.6% | 98.3% | 70.6% | 49.2%
CNC(=O)c1cc(Oc2ccc(NC(=O)Nc3cc(C(C)(C)C)nn3-c3ccc4ncccc4c3)c(F)c2)ccn1 | 123% | 121% | 121% | 128% | 127% | 170% | 135% | 155% | 157% | 156% | 122% | – | – | – | – | – | – | – | – | – | – | – | 119% | 124% | 125% | 140% | 151% | 154% | 160% | 158% | 155% | 164% | 123%
c1ccc2c(-c3cnn4cc(-c5ccc(N6CCNCC6)cc5)cnc34)ccnc2c1 | 79.8% | 77.8% | 134% | 166% | 144% | 143% | 146% | 121% | 114% | 111% | 90.3% | 93.8% | 91.3% | 139% | 133% | 132% | 137% | 128% | 126% | 122% | 120% | 87.7% | 83.9% | 72% | 122% | 120% | 173% | 150% | 141% | 144% | 146% | 117% | 77.8%
CC1(C)CC(=O)c2c(C(F)(F)F)nn(-c3ccc(C(N)=O)c(NC4CCC(OC(=O)CN)CC4)c3)c2C1 (stereo unspecified) | 94.8% | 92.8% | 104% | 99% | 102% | 84.5% | 27.3% | 17.8% | 13.5% | 17.5% | 15.7% | 92.5% | 110% | 92.4% | 92.9% | 84.2% | 88.9% | 20.6% | 11.2% | 9.75% | 9.88% | 11.1% | 94.4% | 103% | 109% | 93.2% | 89.2% | 76% | 21.3% | 15.8% | 13.4% | 14.1% | 15.9%
COc1ccc(-c2c(-c3ccc(O)cc3O)n[nH]c2C)cc1 | 108% | 115% | 105% | 115% | 126% | 117% | 104% | 123% | 83% | 102% | 59% | 89% | 98.4% | 105% | 101% | 100% | 113% | 105% | 111% | 106% | 102% | 90.3% | 91% | 98% | 102% | 124% | 113% | 110% | 121% | 99.1% | 109% | 99.1% | 77.1%
Cc1c(OCC(F)(F)F)ccnc1C[S+]([O-])c1nc2ccccc2[nH]1 (stereo unspecified) | 100% | 100% | 107% | 96.6% | 108% | 118% | 122% | 97.7% | 113% | 122% | 110% | 110% | 114% | 105% | 113% | 105% | 108% | 119% | 103% | 118% | 108% | 117% | 102% | 111% | 111% | 109% | 113% | 113% | 115% | 120% | 128% | 113% | 123%
COc1ccc2cc(-c3[nH]c(-c4ccc([S+](C)[O-])cc4)nc3-c3ccncc3)ccc2c1 (stereo unspecified) | 115% | 118% | 124% | 118% | 136% | 143% | 148% | 126% | 120% | 143% | 111% | 100% | 103% | 114% | 113% | 114% | 99.1% | 107% | 111% | 108% | 110% | 134% | 111% | 98.5% | 106% | 118% | 121% | 113% | 130% | 123% | 127% | 150% | 119%
Cn1cc(-c2ccncc2)c(-c2ccc(OCc3ccc4ccccc4n3)cc2)n1 | – | – | – | – | – | – | – | – | – | – | – | – | – | – | – | – | – | – | – | – | – | – | 102% | 123% | 133% | 125% | 114% | 117% | 131% | 123% | 109% | 111% | 98.4%
CCOC(=O)c1ncn2c1CN(C)C(=O)c1cc(F)ccc1-2 | 131% | 124% | 124% | 117% | 123% | 120% | 109% | 110% | 108% | 90% | 73.6% | 116% | 130% | 118% | 111% | 99.6% | 104% | 106% | 120% | 120% | 108% | 76.8% | 122% | 109% | 110% | 124% | 113% | 107% | 128% | 95.7% | 116% | 103% | 78.8%
CC1=CC2=C(O1)C(=C3OC(=O)\C=C(C)/C3=C2)C | 79.8% | 98.7% | 90.9% | 114% | 104% | 123% | 125% | 121% | 95.2% | 124% | 116% | 114% | 102% | 112% | 115% | 125% | 108% | 114% | 102% | 113% | 106% | 106% | 91.2% | 92.2% | 99.8% | 102% | 107% | 98% | 112% | 105% | 114% | 102% | 114%
CC1=C(C)C2=C(S1)[N]3C(=NN=C3[C@H](CC(=O)OC(C)(C)C)/N=C2/C4=CC=C(Cl)C=C4)C | 104% | 97.6% | 92% | 102% | 96.1% | 70.7% | 28.9% | 52.4% | 15.7% | 10.5% | 10.1% | 88.2% | 99.2% | 96.4% | 88.4% | 86.2% | 81.8% | 27.3% | 50.5% | 12.1% | 10.6% | 11.1% | 101% | 97.5% | 92.5% | 87.7% | 96.8% | 81.9% | 29.5% | 55.3% | 11.7% | 10.6% | 10.5%
